Consider 28 compounds from ChEMBL document CHEMBL1128098, “Synthesis and serotonin receptor binding properties of 5-substituted 3-(1,2,5,6-tetrahydropyridin-3-yl) indoles” (Bioorg Med Chem Lett, 1995).

Test [1] has as its target Serotonin 2 (5-HT2) receptor (Rattus norvegicus, UniProt P30994+P08909+P14842). As to the kind of experiment: Binding affinity to 5-hydroxytryptamine 2 receptor using [3H]ketanserin radioligand assay. The test is classed as protein assay.
Test [2] addresses T1, 5-hydroxytryptamine receptor 1A (Rattus norvegicus, UniProt P19327).
T1 sequence (P19327 whole entry): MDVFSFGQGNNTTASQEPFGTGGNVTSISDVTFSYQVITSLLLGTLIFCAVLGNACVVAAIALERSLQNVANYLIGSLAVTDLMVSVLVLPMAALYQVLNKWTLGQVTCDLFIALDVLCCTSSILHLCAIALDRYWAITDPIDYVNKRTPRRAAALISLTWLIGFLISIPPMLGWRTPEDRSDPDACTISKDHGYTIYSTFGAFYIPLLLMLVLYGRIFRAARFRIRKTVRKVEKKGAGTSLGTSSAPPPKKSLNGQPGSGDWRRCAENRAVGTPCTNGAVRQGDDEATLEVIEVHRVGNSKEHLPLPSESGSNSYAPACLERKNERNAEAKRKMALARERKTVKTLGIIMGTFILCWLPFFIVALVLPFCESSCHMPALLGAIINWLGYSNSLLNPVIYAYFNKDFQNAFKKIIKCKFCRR
Description: Binding affinity to 5-hydroxytryptamine 1A receptor using [3H]8-OH-DPAT radioligand assay.

A word on the Ki: it is the equilibrium dissociation constant of an inhibitor or competing ligand from its target. Low values mean tighter binding, high ones weaker binding.

`CCCN1CCC=C(c2c[nH]c3ccc(C(=O)OC)cc23)C1`: the inhibition constant (Ki) in test [1] is greater than 50000 nM; in test [2], 214 nM.
In the same order, the values of `CCCN1CCC=C(c2c[nH]c3ccc(C#N)cc23)C1` are 958 nM and 303 nM.
Turning to `CCCN1CCC=C(c2c[nH]c3ccccc23)C1`, the Ki in test [1] came out at 146 nM; in test [2], 556 nM.
In the same order, the values of `COc1ccc2[nH]cc(C3=CCCN(C)C3)c2c1` are 716 nM and 79 nM.
Take `CCCN1CCC=C(c2c[nH]c3ccc(Br)cc23)C1`: the Ki in test [1] came out at 139 nM; in test [2], 192 nM.
In the same order, the values of `COC(=O)c1ccc2[nH]cc(C3=CCCN(C)C3)c2c1` are 5360 nM and 102 nM.
On to `CC(=O)Nc1ccc2[nH]cc(C3=CCCN(C)C3)c2c1`, for which the inhibition constant Ki in test [1] was 14536 nM; in test [2], 16 nM.
In the same order, the values of `CN1CCC=C(c2c[nH]c3ccc(Br)cc23)C1` are 82 nM and 50 nM.
In the same order, the values of `CN1CCC=C(c2c[nH]c3ccc(C(N)=O)cc23)C1` are greater than 10000 nM and 3.8 nM.
In the same order, the values of `CCN1CCC=C(c2c[nH]c3ccc(Cl)cc23)C1` are 150 nM and 47 nM.
Regarding `Cc1ccc2[nH]cc(C3=CCCN(C)C3)c2c1`, the values for the Ki in test [1] and in test [2] were 194 nM and 72 nM, respectively.
With `CN1CCC=C(c2c[nH]c3ccc(O)cc23)C1`, the inhibition constant Ki was found to be 237 nM in test [1] and 145 nM in test [2].
Turning to `CC(=O)c1ccc2[nH]cc(C3=CCCN(C)C3)c2c1`, the inhibitory constant (Ki) is 3383 nM in test [1] and 91 nM in test [2].
In the case of `COc1ccc2[nH]cc(C3=CCCNC3)c2c1`, the Ki in test [1] turned out to be 230 nM; in test [2] it was 5.7 nM.
In the same order, the values of `CN1CCC=C(c2c[nH]c3ccc(C#N)cc23)C1` are 1035 nM and 129 nM.
Take `CCN1CCC=C(c2c[nH]c3ccc(C#N)cc23)C1`: the Ki in test [1] was found to be 1360 nM; in test [2], 186 nM.
In the same order, the values of `CCCN1CCC=C(c2c[nH]c3ccc(OC)cc23)C1` are 1070 nM and 226 nM.
As for `CN1CCC=C(c2c[nH]c3ccc(F)cc23)C1`, the values for the inhibition constant (Ki) in test [1] and in test [2] were 43 nM and 124 nM, respectively.
As for `CN1CCC=C(c2c[nH]c3ccc(Cl)cc23)C1`, the values for the Ki in test [1] and in test [2] were 107 nM and 113 nM, respectively.
With `CCN1CCC=C(c2c[nH]c3ccc(F)cc23)C1`, the inhibition constant Ki is 67 nM in test [1] and 142 nM in test [2].
In the same order, the values of `CCCN1CCC=C(c2c[nH]c3ccc(NC(C)=O)cc23)C1` are greater than 50000 nM and 205 nM.
In the same order, the values of `CCCN1CCC=C(c2c[nH]c3ccc(C(N)=O)cc23)C1` are 19152 nM and 4.7 nM.
In the same order, the values of `CN1CC[C@@H]2CCc3[nH]c4ccccc4c3[C@H]2C1` are 325 nM and 2360 nM.
As to `CCN1CCC=C(c2c[nH]c3ccc(Br)cc23)C1`, the inhibitory constant (Ki) in test [1] came to 125 nM; in test [2], 24 nM.
On to `CCN1CCC=C(c2c[nH]c3ccc(C)cc23)C1`, for which the inhibition constant Ki is 246 nM in test [1] and 42 nM in test [2].
For `CN1CCC=C(c2c[nH]c3ccccc23)C1`, the inhibition constant (Ki) in test [1] turned out to be 139 nM; in test [2], 261 nM.
Turning to `CCN1CCC=C(c2c[nH]c3ccc(OC)cc23)C1`, the inhibition constant Ki in test [1] came to 1130 nM; in test [2], 71 nM.
In the same order, the values of `CCN1CCC=C(c2c[nH]c3ccccc23)C1` are 165 nM and 213 nM.
